Reference: publication PMC6278313
Like-named read-outs stand apart in the source and are kept apart here.

Columns and labels:
5-HT1B = 5-HT1B (Homo sapiens, UniProt P28222); experiment: NIMH-PDSP radioligand binding screen, 5-HT1B
benzodiazepine (BzP) = experiment: NIMH-PDSP radioligand binding screen, benzodiazepine site; set-up: species or system rat; conditions: 10 μM
[1] = tested on: all tested receptors, transporters, and binding sites; experiment: NIMH-PDSP radioligand binding screen, whole panel; conditions: 10 μM; except the sites named for 17 and 27
human COX-2 = conditions: cited from earlier work
[2] = molecular target: DAT (dopamine transporter) (Homo sapiens, UniProt Q01959); experiment: NIMH-PDSP radioligand binding screen, DAT; conditions: read-out: inhibition of radioligand binding at DAT
Chain of DAT (dopamine transporter) (Q01959 whole entry, species assumed): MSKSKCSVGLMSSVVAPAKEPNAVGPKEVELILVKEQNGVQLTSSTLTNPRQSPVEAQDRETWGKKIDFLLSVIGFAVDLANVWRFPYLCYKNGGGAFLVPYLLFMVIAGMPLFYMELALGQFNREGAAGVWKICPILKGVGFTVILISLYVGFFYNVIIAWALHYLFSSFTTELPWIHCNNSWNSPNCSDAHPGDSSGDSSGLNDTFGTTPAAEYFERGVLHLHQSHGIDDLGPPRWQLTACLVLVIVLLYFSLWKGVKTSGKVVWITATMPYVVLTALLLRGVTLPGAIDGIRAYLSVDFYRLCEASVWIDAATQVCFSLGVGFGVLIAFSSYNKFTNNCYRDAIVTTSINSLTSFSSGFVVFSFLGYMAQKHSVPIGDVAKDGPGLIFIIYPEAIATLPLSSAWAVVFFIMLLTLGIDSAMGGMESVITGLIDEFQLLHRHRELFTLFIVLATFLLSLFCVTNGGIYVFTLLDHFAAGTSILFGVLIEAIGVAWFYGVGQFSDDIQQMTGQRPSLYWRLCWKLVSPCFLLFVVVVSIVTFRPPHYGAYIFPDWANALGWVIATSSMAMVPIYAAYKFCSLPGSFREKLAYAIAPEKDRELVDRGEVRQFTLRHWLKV

COX-1 [3] = molecular target: T1, COX-1 (Homo sapiens, UniProt P23219); experiment: COX-1 inhibition, human whole blood (Thromboxane B2 EIA)
T1 sequence (P23219 24-599): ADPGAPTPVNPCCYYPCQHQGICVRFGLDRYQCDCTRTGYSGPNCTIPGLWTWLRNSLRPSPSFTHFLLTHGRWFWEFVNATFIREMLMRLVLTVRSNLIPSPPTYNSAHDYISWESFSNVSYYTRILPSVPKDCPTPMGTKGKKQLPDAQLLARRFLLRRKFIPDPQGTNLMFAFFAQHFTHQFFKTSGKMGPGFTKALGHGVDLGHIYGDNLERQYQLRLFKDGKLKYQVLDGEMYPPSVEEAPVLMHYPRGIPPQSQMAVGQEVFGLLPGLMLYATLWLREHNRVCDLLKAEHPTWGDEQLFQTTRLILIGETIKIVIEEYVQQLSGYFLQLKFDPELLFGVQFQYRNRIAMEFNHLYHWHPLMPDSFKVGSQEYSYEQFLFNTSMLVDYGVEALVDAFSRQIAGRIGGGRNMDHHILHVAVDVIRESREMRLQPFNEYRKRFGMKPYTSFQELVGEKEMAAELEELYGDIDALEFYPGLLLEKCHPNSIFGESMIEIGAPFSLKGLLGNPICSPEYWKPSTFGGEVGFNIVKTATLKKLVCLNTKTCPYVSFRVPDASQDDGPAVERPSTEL

COX-1 [4] = molecular target: T2, COX-1 (Macaca mulatta, UniProt F6S984); experiment: COX-1 inhibition, monkey whole blood (Thromboxane B2 EIA)
T2 sequence (F6S984 25-599): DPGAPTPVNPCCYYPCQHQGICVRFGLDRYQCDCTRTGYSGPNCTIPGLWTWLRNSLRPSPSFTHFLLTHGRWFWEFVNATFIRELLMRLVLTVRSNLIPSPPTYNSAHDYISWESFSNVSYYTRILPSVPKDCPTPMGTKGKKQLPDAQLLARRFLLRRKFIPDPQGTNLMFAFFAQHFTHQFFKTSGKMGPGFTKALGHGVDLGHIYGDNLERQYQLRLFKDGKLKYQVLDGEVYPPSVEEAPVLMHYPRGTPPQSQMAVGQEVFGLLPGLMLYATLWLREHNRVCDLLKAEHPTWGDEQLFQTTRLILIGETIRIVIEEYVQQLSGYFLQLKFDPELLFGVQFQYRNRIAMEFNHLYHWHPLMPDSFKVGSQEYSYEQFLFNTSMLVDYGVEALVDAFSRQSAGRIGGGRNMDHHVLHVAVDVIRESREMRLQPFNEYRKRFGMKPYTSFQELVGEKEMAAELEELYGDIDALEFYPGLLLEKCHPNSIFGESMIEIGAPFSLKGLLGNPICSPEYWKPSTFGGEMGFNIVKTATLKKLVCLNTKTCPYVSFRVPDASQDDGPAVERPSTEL

COX-2 [5] = molecular target: T3, COX-2 (Macaca mulatta, UniProt F7BWZ9); experiment: COX-2 inhibition, monkey whole blood (Prostaglandin E2 EIA)
T3 sequence (F7BWZ9 18-604): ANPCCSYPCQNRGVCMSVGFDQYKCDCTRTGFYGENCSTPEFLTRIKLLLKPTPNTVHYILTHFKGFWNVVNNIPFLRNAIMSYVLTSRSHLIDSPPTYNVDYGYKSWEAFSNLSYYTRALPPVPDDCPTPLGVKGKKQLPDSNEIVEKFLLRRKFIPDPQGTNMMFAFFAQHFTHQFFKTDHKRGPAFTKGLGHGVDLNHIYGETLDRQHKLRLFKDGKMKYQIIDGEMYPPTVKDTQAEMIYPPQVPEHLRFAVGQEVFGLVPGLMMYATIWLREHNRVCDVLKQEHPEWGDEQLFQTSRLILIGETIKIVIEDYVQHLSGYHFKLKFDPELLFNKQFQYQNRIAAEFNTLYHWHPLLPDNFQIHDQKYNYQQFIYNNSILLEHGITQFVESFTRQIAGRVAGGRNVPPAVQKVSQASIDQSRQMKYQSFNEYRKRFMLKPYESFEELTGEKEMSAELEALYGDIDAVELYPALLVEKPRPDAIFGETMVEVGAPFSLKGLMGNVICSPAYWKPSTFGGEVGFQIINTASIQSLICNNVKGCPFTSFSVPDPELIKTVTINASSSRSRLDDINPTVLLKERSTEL

COX-1 [6] = molecular target: T1, COX-1; set-up: endogenous in cells; host or cells: fresh human whole blood; conditions: footnote c; SE <15%; read-out: IC50 COX-1 Human WB (literature); cited from earlier work
[7] = Chart 1; cited from earlier work
COX-2 [8] = molecular target: COX-2; set-up: method as in literature cited in the text (18-30); conditions: Chart 1; ref literature cited in the text (18-30); cited from earlier work
COX-2 [9] = conditions: Chart 1; PET in vivo; ref literature cited in the text (18-30); cited from earlier work

Chain of 5-HT1B (P28222 whole entry): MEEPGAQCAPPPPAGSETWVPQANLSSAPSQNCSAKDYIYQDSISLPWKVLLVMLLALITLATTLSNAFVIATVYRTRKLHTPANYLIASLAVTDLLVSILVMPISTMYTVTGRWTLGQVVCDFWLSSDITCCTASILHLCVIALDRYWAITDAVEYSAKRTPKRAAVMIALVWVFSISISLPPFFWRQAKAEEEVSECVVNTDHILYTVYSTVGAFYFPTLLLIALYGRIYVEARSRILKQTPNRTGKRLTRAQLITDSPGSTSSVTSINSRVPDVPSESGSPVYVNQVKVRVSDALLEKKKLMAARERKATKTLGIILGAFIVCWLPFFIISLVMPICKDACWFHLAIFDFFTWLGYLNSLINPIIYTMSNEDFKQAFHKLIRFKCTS

For `COc1cc(NCc2cccs2)nc(-c2ccc(S(C)(=O)=O)cc2)n1` [Compound 17, 6-Methoxy-2-(4-(methylsulfonyl)phenyl)-N-(thiophen-2-ylmethyl)pyrimidin-4-amine], the inhibition at 10 µM (5-HT1B) was 50%, the “inhibition of radioligand binding at benzodiazepine (BzP)” value (benzodiazepine (BzP)) was 50.6% and the “inhibition of radioligand binding at all tested receptors, transporters, and binding sites” value [1] was “less than 50%”. For the same molecule, the melting point was 139 to 141 °C, the IC50 (human COX-2; Table 1, human whole blood COX-2, SEM <15%, read-out: HWB IC50) was […] and the IC50 (human COX-2; footnote c, SE <15%, read-out: IC50 COX-2 Human WB (literature) (converted)) was […]. For the same molecule, the inhibition at 10 µM [2] was 53.7%, the IC50 (COX-1 [3]) was greater than 1000 nM and the IC50 (COX-1 [4]) was greater than 1000 nM. The IC50 (COX-2 [5]) was 2.58 ± 0.23 nM and the IC50 (COX-1 [6]) was greater than 8800 nM.

For `CS(=O)(=O)c1ccc(-c2cc(C(F)(F)F)nc(NCc3ccc([18F])cc3)n2)cc1` [[^18F]10, [^18F]pyricoxib], the logD [7] is listed as 3.37.

In the case of `CS(=O)(=O)c1ccc(-c2ccsc2-c2ccc([18F])cc2)cc1` [[^18F]9, [^18F]desbromo-DuP-697], the Ki (COX-2 [8]) is given as 250 nM, the logP [7] is given as 3.72 and the brain entry (COX-2 [9]) is given as “Brain penetrant”.
